Measurements from article PMC5601486, “Identification of 4-phenylquinolin-2(1H)-one as a specific allosteric inhibitor of Akt” (Scientific Reports, 2017).

Key:
[1] = test system: AURKB; test: KINOMEscan; conditions: 50000 nM
Experimental: KINOMEscan™ selectivity screen
(§1) The assay was perfor med at DiscoveRx Corporation according the methods published previously5. Briefly, Kinase-tagged T7 phage strains were grown in parallel in an E. coli host derived from the BL21 strain. E. coli were grown to log-phase and infected with T7 phage from a frozen stock and incubated with shaking at 32°C until lysis (90-150 minutes). The kinases were produced in HEK-293 cells and subsequently tagged with DNA for qPCR detection. Streptavidin-coated magnetic beads were treated with biotinylated small molecule ligands to generate affinity resins for kinase
(§2) inhibitor or DMSO control was performed in polypropylene 384-well plates for 1 hr at room temperature. After wash with PBS buffer containing 0.05% Tween 20, the beads were incubated in elution buffer (PBS containing 0.05 % Tween 20 and 0.5 μM non-biotinylated affinity ligand) for 30 minutes at room temperature. The kinase concentration in the eluates was measured by qPCR.

[2] = test system: ADCK4; test: KINOMEscan; conditions: 50000 nM
Experimental: KINOMEscan™ selectivity screen
as §1, §2

[3] = test system: HIPK4; test: KINOMEscan; conditions: 50000 nM
Experimental: KINOMEscan™ selectivity screen
as §1, §2

[4] = test system: LRRK2; test: KINOMEscan; conditions: 50000 nM
Experimental: KINOMEscan™ selectivity screen
as §1, §2

[5] = test system: KIT(A829P); test: KINOMEscan; conditions: 50000 nM
Experimental: KINOMEscan™ selectivity screen
as §1, §2

[6] = test system: MET(Y1235D); test: KINOMEscan; conditions: 50000 nM
Experimental: KINOMEscan™ selectivity screen
(§3) Briefly, Kinase-tagged T7 phage strains were grown in parallel in an E. coli host derived from the BL21 strain. E. coli were grown to log-phase and infected with T7 phage from a frozen stock and incubated with shaking at 32°C until lysis (90-150 minutes). The kinases were produced in HEK-293 cells and subsequently tagged with DNA for qPCR detection. Streptavidin-coated magnetic beads were treated with biotinylated small molecule ligands to generate affinity resins for kinase
as §2

[7] = test system: AMPK-alpha2; test: KINOMEscan; conditions: 50000 nM
Experimental: KINOMEscan™ selectivity screen
as §1, §2

[8] = test system: SGK1; test: Western blot of SGK1 S422 phosphorylation; type: cell-based, Mouse; conditions: all concentrations tested including 80 µM
Experimental: Neuro 2A cells were seeded in 12-well plates in DMEM containing 5% FBS for 24 hr.
After overnight serum starvation (in 0% FBS DMEM), cells were incubated for 30 min at 37 °C with G7 or LY294002 or Torin 1 (Sigma Aldrich) at various concentrations, or DMSO control. IGF-1 was added to each well at a final concentration of 100 ng/mL. After 30-min incubation cells were washed with cold PBS and lysed with 50 µL lysis buffer containing 1% Triton X-100 and protease/phosphatase inhibitors (Cell Signaling Technology) or RIPA buffer (Santa Cruz Biotech). Samples were electrophoresed in 4–12% Bis-Tris gels (Life Technologies) at 150 V using MOPS SDS running buffer. Proteins were transferred electrophoretically to a PVDF or nitrocellulose membrane. For detection of cleaved […]
caspase 3 a Trans-Blot Turbo Transfer System (Bio-Rad, 25 V for 25 min) with PVDF membrane were used. […]
anti- GAPDH (14C10) antibody (#2118) (all antibodies were from Cell Signaling Technology unless indicated, 1:1000 dilution was used) at 4°C overnight, washed three times with TBS-T, then incubated with peroxidase-conjugated secondary antibody (Sigma-Aldrich) for 1 hr at room temperature. […] Band intensity was quantitated using Kodak 1D imaging analysis software. […]

[9] = test system: T1, Akt; test: In vitro phosphorylation of Akt S473 by MAPKAP kinase 2; type: biochemical; conditions: inactive Akt, PE/PC/PS/PIP3 vesicles
T1 construct: purchased Millipore 14-279

[10] = test system: ALK; test: KINOMEscan; conditions: 50000 nM
Experimental: KINOMEscan™ selectivity screen
as §1, §2

[11] = test system: VPS34; test: KINOMEscan; conditions: 50000 nM
Experimental: KINOMEscan™ selectivity screen
as §1, §2

[12] = test system: CSNK1G1; test: KINOMEscan; conditions: 50000 nM
Experimental: KINOMEscan™ selectivity screen
as §1, §2

[13] = test system: HASPIN; test: KINOMEscan; conditions: 50000 nM
Experimental: KINOMEscan™ selectivity screen
as §1, §2

[14] = test system: T2, PFCDPK1(P.falciparum); test: KINOMEscan; type: binding; conditions: 50000 nM
T2 construct: purchased DiscoveRx KINOMEscan

[15] = test system: PIP5K2C; test: KINOMEscan; conditions: 50000 nM
Experimental: KINOMEscan™ selectivity screen
as §3, §2

[16] = test system: FLT1; test: KINOMEscan; conditions: 50000 nM
Experimental: KINOMEscan™ selectivity screen
as §1, §2

[17] = test system: TLK2; test: KINOMEscan; conditions: 50000 nM
Experimental: KINOMEscan™ selectivity screen
as §3, §2

[18] = test system: PKMYT1; test: KINOMEscan; conditions: 50000 nM
Experimental: KINOMEscan™ selectivity screen
as §3, §2

[19] = test system: PRKCE; test: KINOMEscan; conditions: 50000 nM
Experimental: KINOMEscan™ selectivity screen
as §1, §2

[20] = test system: AURKA; test: KINOMEscan; conditions: 50000 nM
Experimental: KINOMEscan™ selectivity screen
as §1, §2

[21] = test system: FGFR4; test: KINOMEscan; conditions: 50000 nM
Experimental: KINOMEscan™ selectivity screen
(§4) The assay was perfor med at DiscoveRx Corporation according the methods published previously5. […] The kinases were produced in HEK-293 cells and subsequently tagged with DNA for qPCR detection. Streptavidin-coated magnetic beads were treated with biotinylated small molecule ligands to generate affinity resins for kinase
as §2

[22] = test system: EGFR(T790M); test: KINOMEscan; conditions: 50000 nM
Experimental: KINOMEscan™ selectivity screen
as §1, §2

[23] = test system: DRAK1; test: KINOMEscan; conditions: 50000 nM
Experimental: KINOMEscan™ selectivity screen
as §3, §2

[24] = test system: KIT(D816V); test: KINOMEscan; conditions: 50000 nM
Experimental: KINOMEscan™ selectivity screen
as §1, §2

[25] = test system: CAMK1B; test: KINOMEscan; conditions: 50000 nM
Experimental: KINOMEscan™ selectivity screen
as §4, §2

[26] = test system: ULK2; test: KINOMEscan; conditions: 50000 nM
Experimental: KINOMEscan™ selectivity screen
as §1, §2

[27] = test system: CIT; test: KINOMEscan; conditions: 50000 nM
Experimental: KINOMEscan™ selectivity screen
The kinases were produced in HEK-293 cells and subsequently tagged with DNA for qPCR detection. Streptavidin-coated magnetic beads were treated with biotinylated small molecule ligands to generate affinity resins for kinase
as §2

[28] = test system: ACVR2B; test: KINOMEscan; conditions: 50000 nM
Experimental: KINOMEscan™ selectivity screen
as §1, §2

[29] = test system: TRKC; test: KINOMEscan; conditions: 50000 nM
Experimental: KINOMEscan™ selectivity screen
as §3, §2

Oc1cc(-c2ccccc2)c2ccccc2n1 [G7, 4-phenylquinolin-2(1H)-one]
Percent Control [1]: 91%
Percent Control [2]: 96%
Percent Control [3]: 98%
Percent Control [4]: 55%
Percent Control [5]: 78%
Percent Control [6]: 59%
Percent Control [7]: 97%
S422 phosphorylation of SGK1 [8]: did not inhibit
in vitro phosphorylation of S473 by MAPKAP kinase 2 [9]: impaired
Percent Control [10]: 95%
Percent Control [11]: 35%
Percent Control [12]: 89%
Percent Control [13]: 57%
Percent Control [14]: 83%
Percent Control [15]: 83%
Percent Control [16]: 81%
Percent Control [17]: 89%
Percent Control [18]: 65%
Percent Control [19]: 100%
Percent Control [20]: 50%
Percent Control [21]: 96%
Percent Control [22]: 100%
Percent Control [23]: 65%
Percent Control [24]: 58%
Percent Control [25]: 52%
Percent Control [26]: 76%
Percent Control [27]: 74%
Percent Control [28]: 100%
Percent Control [29]: 61%
